# According to patent US10294202B2, “Pyrrolidinones as herbicides” (FMC Corporation, priority 2013, dated 2019):
# Key:
# soybean = experiment: Test C pre-/postemergence herbicide test; assay type: in vivo, Glycine max
# Procedure, shortened: (§1)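 Compound solutions contained surfactant in a non-phytotoxic solvent. These were sprayed onto pots of loam/sand sown with seeds, and onto young plants (2 to 18 cm, 1- to 4-leaf) in sphagnum peat–vermiculite mix. Visual injury scores (0 none, 100 complete control) were recorded after 13 to 15 days.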
# corn = experiment: Test C pre-/postemergence herbicide test; assay type: in vivo, Zea mays
# Procedure, shortened: as §1
# crabgrass, large = experiment: Test C pre-/postemergence herbicide test; assay type: in vivo, Digitaria sanguinalis
# Procedure, shortened: as §1
# barnyardgrass = experiment: Test A pre-/postemergence herbicide test; assay type: in vivo, Echinochloa crus-galli
# Procedure, shortened: (§2)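 Formulated compound (non-phytotoxic solvent, surfactant) sprayed pre- onto soil of seeded loam/sand pots or post- onto seedlings at 1–2 leaves; ~10 d greenhouse; 0–100 visual control rating versus untreated.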
# johnsongrass = experiment: Test C pre-/postemergence herbicide test; assay type: in vivo, Sorghum halepense
# Procedure, shortened: as §1
# giant foxtail = experiment: Test A pre-/postemergence herbicide test; assay type: in vivo, Setaria faberii
# Procedure, shortened: as §2
# pigweed = experiment: Test C pre-/postemergence herbicide test; assay type: in vivo, Amaranthus retroflexus
# Procedure, shortened: as §1
# nutsedge, yellow = experiment: Test C pre-/postemergence herbicide test; assay type: in vivo, Cyperus esculentus
# Procedure, shortened: as §1
# ryegrass, Italian = experiment: Test C pre-/postemergence herbicide test; assay type: in vivo, Lolium multiflorum
# Procedure, shortened: as §1
# ducksalad = experiment: Test B flooded paddy test; assay type: in vivo, Heteranthera limosa; settings: 250 g ai/ha, Flood; scale of 0 to 100 where 0 is no effect and 100 is complete control
# Procedure, shortened: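 Plants grown to 2-leaf stage; pots flooded 3 cm above soil and compound applied directly into paddy water, depth held throughout. Visual rating against untreated controls after 13 to 15 days in greenhouse, 0 (no effect) to 100 (complete control).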
# lambsquarters = experiment: Test C pre-/postemergence herbicide test; assay type: in vivo, Chenopodium album
# Procedure, shortened: as §1
# [1] = Preemergence, 31 g ai/ha, scale 0 to 100, 0 is no effect and 100 is complete control
# [2] = Preemergence, 62 g ai/ha, scale 0 to 100
# [3] = Preemergence, 125 g ai/ha, scale 0 to 100 (0 no effect, 100 complete control)
# [4] = Postemergence, 125 g ai/ha, 0 to 100 scale, 0 no effect, 100 complete control
# [5] = Postemergence, 500 g ai/ha, 0 to 100 scale (0 no effect, 100 complete control)
# [6] = Preemergence, 125 g ai/ha, visual rating on 0 to 100 scale (0 no effect, 100 complete control)
# [7] = Postemergence, 31 g ai/ha, scale 0 to 100 (0 no effect, 100 complete control)
# [8] = Postemergence, 62 g ai/ha, scale 0 (no effect) to 100 (complete control)
# [9] = Postemergence, 125 g ai/ha, scale 0 to 100 (0 no effect, 100 complete control)
# [10] = Postemergence, 250 g ai/ha, scale 0 to 100 (0 no effect, 100 complete control)
# [11] = Preemergence, 62 g ai/ha, scale 0 to 100 (0 no effect, 100 complete control)
# [12] = 125 g ai/ha, visual rating, 0 to 100 scale, 0 no effect, 100 complete control, approximately 10 days, preemergence
# [13] = Postemergence, 125 g ai/ha, 0 to 100 scale, 0 is no effect, 100 is complete control
# [14] = preemergence, 500 g ai/ha, 0 to 100 scale, 0 is no effect and 100 is complete control
smiles,measurement,setting,value
O=C1NCC(c2ccc(F)c(C(F)(F)F)c2)C1C(=O)Nc1cccc(F)c1F (racemic) [Compound 77],Soybean plant response rating,soybean; [1],0
same,"Plant response rating, Soybean",soybean; [2],0
same,"Plant response rating, Soybean",soybean; [3],0
same,"Plant response rating (scale of 0 to 100), Soybean","soybean; Preemergence, 250 g ai/ha",0
same,Corn plant response rating,corn; [1],0
same,"Plant response rating, Corn",corn; [2],20
same,"Plant response rating, Corn",corn; [3],55
same,"Plant response rating (scale of 0 to 100), Corn","corn; Preemergence, 250 g ai/ha",70
same,"Crabgrass, Large plant response rating","crabgrass, large; [1]",95
same,"Plant response rating, Crabgrass, Large","crabgrass, large; [2]",95
same,"Plant response rating, Crabgrass, Large","crabgrass, large; [3]",98
same,"Plant response rating (scale of 0 to 100), Crabgrass, Large","crabgrass, large; Preemergence, 250 g ai/ha",98
same,"Plant response rating, Barnyardgrass",barnyardgrass; [4],70
same,"Plant response rating, Barnyardgrass",barnyardgrass; [5],80
same,Barnyardgrass plant response rating,barnyardgrass; [6],80
same,"Plant response rating, Barnyardgrass","barnyardgrass; preemergence, 500 g ai/ha, 0 to 100 scale (0 no effect, 100 complete control)",90
same,Johnsongrass plant response rating,johnsongrass; [1],20
same,"Plant response rating, Johnsongrass",johnsongrass; [2],55
same,"Plant response rating, Johnsongrass",johnsongrass; [3],75
same,"Plant response rating (scale of 0 to 100), Johnsongrass","johnsongrass; Preemergence, 250 g ai/ha",90
same,"Plant response rating, Foxtail, Giant",giant foxtail; [4],80
same,"Plant response rating, Foxtail, Giant",giant foxtail; [5],80
same,"Foxtail, Giant plant response rating",giant foxtail; [6],90
same,"Plant response rating, Foxtail, Giant","giant foxtail; preemergence, 500 g ai/ha, 0 to 100 scale",90
same,Pigweed plant response rating,pigweed; [1],0
same,"Plant response rating, Pigweed",pigweed; [2],60
same,"Plant response rating, Pigweed",pigweed; [3],60
same,"Plant response rating (scale of 0 to 100), Pigweed","pigweed; Preemergence, 250 g ai/ha",85
same,"Nutsedge, Yellow plant response rating","nutsedge, yellow; [1]",0
same,"Plant response rating, Nutsedge, Yellow","nutsedge, yellow; [2]",0
same,"Plant response rating, Nutsedge, Yellow","nutsedge, yellow; [3]",0
same,"Plant response rating (scale of 0 to 100), Nutsedge, Yellow","nutsedge, yellow; Preemergence, 250 g ai/ha",0
same,"Ryegrass, Italian plant response rating","ryegrass, Italian; [1]",40
same,"Plant response rating, Ryegrass, Italian","ryegrass, Italian; [2]",40
same,"Plant response rating, Ryegrass, Italian","ryegrass, Italian; [3]",40
same,"Plant response rating (scale of 0 to 100), Ryegrass, Italian","ryegrass, Italian; Preemergence, 250 g ai/ha",45
same,"Plant response rating, Ducksalad",ducksalad,100
same,Lambsquarters plant response rating,lambsquarters; [1],75
same,"Plant response rating, Lambsquarters",lambsquarters; [2],85
same,"Plant response rating, Lambsquarters",lambsquarters; [3],85
same,"Plant response rating (scale of 0 to 100), Lambsquarters","lambsquarters; Preemergence, 250 g ai/ha",98
O=C1NC[C@H](c2cccc(C(F)(F)F)c2)[C@H]1C(=O)Nc1cccc(F)c1F [Compound 206],"Plant response rating, Soybean",soybean; [7],5
same,"Plant response rating, Soybean",soybean; [8],5
same,"Plant response rating, Soybean",soybean; [9],5
same,"Plant response rating, Soybean",soybean; [10],5
same,Soybean plant response rating,soybean; [1],0
same,Soybean plant response rating,soybean; [11],0
same,"Plant response rating, Soybean",soybean; [3],0
same,"Plant response rating (scale of 0 to 100), Soybean","soybean; Preemergence, 250 g ai/ha",0
same,"Plant response rating, Corn",corn; [7],0
same,"Plant response rating, Corn",corn; [8],0
same,"Plant response rating, Corn",corn; [9],30
same,"Plant response rating, Corn",corn; [10],50
same,Corn plant response rating,corn; [1],30
same,Corn plant response rating,corn; [11],60
same,"Plant response rating, Corn",corn; [3],65
same,"Plant response rating (scale of 0 to 100), Corn","corn; Preemergence, 250 g ai/ha",60
same,"Plant response rating, Crabgrass, Large","crabgrass, large; [7]",45
same,"Plant response rating, Crabgrass, Large","crabgrass, large; [8]",50
same,"Plant response rating, Crabgrass, Large","crabgrass, large; [9]",70
same,"Plant response rating, Crabgrass, Large","crabgrass, large; [10]",80
same,"Crabgrass, Large plant response rating","crabgrass, large; [1]",90
same,"Crabgrass, Large plant response rating","crabgrass, large; [11]",90
same,"Plant response rating, Crabgrass, Large","crabgrass, large; [3]",95
same,"Plant response rating (scale of 0 to 100), Crabgrass, Large","crabgrass, large; Preemergence, 250 g ai/ha",95
same,"Plant response rating, Barnyardgrass",barnyardgrass; [12],90
same,"Plant response rating, Barnyardgrass",barnyardgrass; [13],90
same,"Barnyardgrass plant response rating (0 to 100 scale, 0 is no effect, 100 is complete control)","barnyardgrass; Postemergence, 500 g ai/ha",90
same,"Plant response rating, Barnyardgrass",barnyardgrass; [14],90
same,"Plant response rating, Johnsongrass",johnsongrass; [7],0
same,"Plant response rating, Johnsongrass",johnsongrass; [8],0
same,"Plant response rating, Johnsongrass",johnsongrass; [9],0
same,"Plant response rating, Johnsongrass",johnsongrass; [10],35
same,Johnsongrass plant response rating,johnsongrass; [1],25
same,Johnsongrass plant response rating,johnsongrass; [11],65
same,"Plant response rating, Johnsongrass",johnsongrass; [3],85
same,"Plant response rating (scale of 0 to 100), Johnsongrass","johnsongrass; Preemergence, 250 g ai/ha",85
same,"Plant response rating, Foxtail, Giant",giant foxtail; [12],90
same,"Plant response rating, Foxtail, Giant",giant foxtail; [13],90
same,"Foxtail, Giant plant response rating (0 to 100 scale, 0 is no effect, 100 is complete control)","giant foxtail; Postemergence, 500 g ai/ha",90
same,"Plant response rating, Foxtail, Giant",giant foxtail; [14],90
same,"Plant response rating, Pigweed",pigweed; [7],30
same,"Plant response rating, Pigweed",pigweed; [8],40
same,"Plant response rating, Pigweed",pigweed; [9],50
same,"Plant response rating, Pigweed",pigweed; [10],30
same,Pigweed plant response rating,pigweed; [1],70
same,Pigweed plant response rating,pigweed; [11],100
same,"Plant response rating, Pigweed",pigweed; [3],100
same,"Plant response rating (scale of 0 to 100), Pigweed","pigweed; Preemergence, 250 g ai/ha",85
same,"Plant response rating, Nutsedge, Yellow","nutsedge, yellow; [7]",0
same,"Plant response rating, Nutsedge, Yellow","nutsedge, yellow; [8]",20
same,"Plant response rating, Nutsedge, Yellow","nutsedge, yellow; [9]",0
same,"Plant response rating, Nutsedge, Yellow","nutsedge, yellow; [10]",0
same,"Nutsedge, Yellow plant response rating","nutsedge, yellow; [1]",0
same,"Nutsedge, Yellow plant response rating","nutsedge, yellow; [11]",0
same,"Plant response rating, Nutsedge, Yellow","nutsedge, yellow; [3]",0
same,"Plant response rating (scale of 0 to 100), Nutsedge, Yellow","nutsedge, yellow; Preemergence, 250 g ai/ha",0
same,"Plant response rating, Ryegrass, Italian","ryegrass, Italian; [7]",0
same,"Plant response rating, Ryegrass, Italian","ryegrass, Italian; [8]",0
same,"Plant response rating, Ryegrass, Italian","ryegrass, Italian; [9]",10
same,"Plant response rating, Ryegrass, Italian","ryegrass, Italian; [10]",35
same,"Ryegrass, Italian plant response rating","ryegrass, Italian; [1]",30
same,"Ryegrass, Italian plant response rating","ryegrass, Italian; [11]",40
same,"Plant response rating, Ryegrass, Italian","ryegrass, Italian; [3]",45
same,"Plant response rating (scale of 0 to 100), Ryegrass, Italian","ryegrass, Italian; Preemergence, 250 g ai/ha",20
same,"Plant response rating, Lambsquarters",lambsquarters; [7],50
same,"Plant response rating, Lambsquarters",lambsquarters; [8],75
same,"Plant response rating, Lambsquarters",lambsquarters; [9],10
same,"Plant response rating, Lambsquarters",lambsquarters; [10],20
same,Lambsquarters plant response rating,lambsquarters; [1],75
same,Lambsquarters plant response rating,lambsquarters; [11],100
same,"Plant response rating, Lambsquarters",lambsquarters; [3],100
same,"Plant response rating (scale of 0 to 100), Lambsquarters","lambsquarters; Preemergence, 250 g ai/ha",100
